Earlier results in patent US20180009934A1, “HIGH […] […] RESINS” (priority 2016, published 2018).

Settings: monomer property, Table 1; species and route not given

Row | SMILES | Toxicity LD50
1 | C=Cc1ccccc1 [STYRENE, styrene] | >2000 mg/kg
2 | C=Cc1ccc(C(C)(C)C)cc1 [Monomer 1, 4-tert butyl styrene] | >2000 mg/kg
